This is an account of results in ChEMBL document CHEMBL2396516, “Synthesis of novel bis(pyrimido[5,4-c]quinoline-2,4(1H,3H)-dione) and its derivatives: evaluation of their antioxidant properties” (Bioorg Med Chem Lett, 2013).

For orientation: IC50 means the concentration needed to halve the response being measured.

Common to all, as to format: functional
In assay [1] the test system is Radical scavenging activity. The assay can be described thus: Antioxidant activity assessed as DPPH free radical scavenging activity by spectrophotometry. A general note: DPPH is a stable violet radical that fades when it is reduced.
Assay [2] in a line: Antioxidant activity assessed as reduction of ferric ion to ferrous ion by FRAP assay.
The test system of assay [3] is Radical scavenging activity. The assay can be described thus: Antioxidant activity assessed as DPPH free radical scavenging activity at 20 ug/ml by spectrophotometry.

In brackets after ≈: the same amount, converted by molar mass.

Turning to `O=c1[nH]c2c(c(=O)[nH]1)C(c1ccccc1)Nc1nc3c(cc1-2)-c1[nH]c(=O)[nH]c(=O)c1C(c1ccccc1)N3` (stereo not drawn), the 50% inhibitory concentration (IC50) in assay [1] came out at 14.21 mg/L (≈ 28.1 µM); in assay [2], 33.91 mg/L (≈ 67.1 µM). Moreover, in assay [3], the Activity is 70.6%.

Turning to `O=c1[nH]c2c(c(=O)[nH]1)C(c1ccccc1[N+](=O)[O-])Nc1nc3c(cc1-2)-c1[nH]c(=O)[nH]c(=O)c1C(c1ccccc1[N+](=O)[O-])N3` (stereo not drawn), the values for the IC50 in assay [1] and in assay [2] were 13.56 mg/L (≈ 22.8 µM) and 31.39 mg/L (≈ 52.7 µM), respectively. In addition, the Activity in assay [3] was determined as 74%.

Turning to `O=c1[nH]c2c(c(=O)[nH]1)C(c1cccc([N+](=O)[O-])c1)Nc1cc3c(cc1-2)NC(c1cccc([N+](=O)[O-])c1)c1c-3[nH]c(=O)[nH]c1=O` (stereo not drawn), the IC50 in assay [1] amounted to 12.39 mg/L (≈ 20.8 µM); in assay [2], 33.28 mg/L (≈ 56 µM). Moreover, in assay [3], the Activity was found to be 81.7%.

For `O=c1[nH]c(=S)[nH]c2c1C(c1ccc([N+](=O)[O-])cc1)Nc1nc3c(cc1-2)-c1[nH]c(=S)[nH]c(=O)c1C(c1ccc([N+](=O)[O-])cc1)N3` (stereo not drawn), the half-inhibitory concentration (IC50) in assay [1] came to 13.56 mg/L (≈ 21.6 µM); in assay [2] it was 26.25 mg/L (≈ 41.8 µM). Further, in assay [3], the Activity worked out at 74%.

Consider `O=c1[nH]c2c(c(=O)[nH]1)C(c1ccc(Cl)cc1)Nc1cc3c(cc1-2)NC(c1ccc(Cl)cc1)c1c-3[nH]c(=O)[nH]c1=O` (stereo not drawn), for which the half-inhibitory concentration (IC50) in assay [1] was found to be 11.8 mg/L (≈ 20.6 µM); in assay [2], 23.21 mg/L (≈ 40.5 µM). Also, in assay [3], the Activity came out at 85.2%.

For the compound `O=c1[nH]c2c(c(=O)[nH]1)C(c1ccc([N+](=O)[O-])cc1)Nc1cc3c(cc1-2)NC(c1ccc([N+](=O)[O-])cc1)c1c-3[nH]c(=O)[nH]c1=O` (stereo not drawn), the IC50 in assay [1] turned out to be 12.44 mg/L (≈ 20.9 µM); in assay [2], 25.01 mg/L (≈ 42.1 µM). Also, in assay [3], the Activity worked out at 80.9%.

As to `O=c1[nH]c2c(c(=O)[nH]1)C(c1ccccc1Cl)Nc1nc3c(cc1-2)-c1[nH]c(=O)[nH]c(=O)c1C(c1ccccc1Cl)N3` (stereo not drawn), the IC50 in assay [1] was 12.42 mg/L (≈ 21.6 µM); in assay [2], 25.51 mg/L (≈ 44.4 µM). Also, the Activity in assay [3] is 80.8%.

With `O=c1[nH]c(=S)[nH]c2c1C(c1ccccc1Cl)Nc1cc3c(cc1-2)NC(c1ccccc1Cl)c1c-3[nH]c(=S)[nH]c1=O` (stereo not drawn), the IC50 in assay [1] is 11.99 mg/L (≈ 19.8 µM); in assay [2], 24.46 mg/L (≈ 40.4 µM). Also, the Activity in assay [3] was 84.1%.

Turning to `O=c1[nH]c(=S)[nH]c2c1C(c1ccccc1Cl)Nc1nc3c(cc1-2)-c1[nH]c(=S)[nH]c(=O)c1C(c1ccccc1Cl)N3` (stereo not drawn), the IC50 in assay [1] worked out at 12.41 mg/L (≈ 20.5 µM); in assay [2], 25.07 mg/L (≈ 41.3 µM). Moreover, in assay [3], the Activity came out at 80.6%.

`O=c1[nH]c2c(c(=O)[nH]1)C(c1cccc([N+](=O)[O-])c1)Nc1nc3c(cc1-2)-c1[nH]c(=O)[nH]c(=O)c1C(c1cccc([N+](=O)[O-])c1)N3` (stereo not drawn): the IC50 in assay [1] came out at 14.24 mg/L (≈ 23.9 µM); in assay [2], 34.9 mg/L (≈ 58.6 µM). Moreover, in assay [3], the Activity came to 70.2%.

In the case of `O=c1[nH]c2c(c(=O)[nH]1)C(c1ccccc1[N+](=O)[O-])Nc1cc3c(cc1-2)NC(c1ccccc1[N+](=O)[O-])c1c-3[nH]c(=O)[nH]c1=O` (stereo not drawn), the IC50 in assay [1] was 12.07 mg/L (≈ 20.3 µM); in assay [2] it was 29.08 mg/L (≈ 48.9 µM). In addition, the Activity in assay [3] worked out at 82.7%.

For the compound `O=c1[nH]c(=S)[nH]c2c1C(c1ccccc1)Nc1cc3c(cc1-2)NC(c1ccccc1)c1c-3[nH]c(=S)[nH]c1=O` (stereo not drawn), the IC50 is 12.62 mg/L (≈ 23.5 µM) in assay [1] and 32.1 mg/L (≈ 59.8 µM) in assay [2]. Further, the Activity in assay [3] was 79.6%.

On to `O=c1[nH]c2c(c(=O)[nH]1)C(c1ccc(Cl)cc1)Nc1nc3c(cc1-2)-c1[nH]c(=O)[nH]c(=O)c1C(c1ccc(Cl)cc1)N3` (stereo not drawn), for which the IC50 was 12.35 mg/L (≈ 21.5 µM) in assay [1] and 24.41 mg/L (≈ 42.5 µM) in assay [2]. Further, in assay [3], the Activity stood at 81.1%.

`O=c1[nH]c2c(c(=O)[nH]1)C(c1ccccc1)Nc1cc3c(cc1-2)NC(c1ccccc1)c1c-3[nH]c(=O)[nH]c1=O` (stereo not drawn): the figures for the IC50 in assay [1] and in assay [2] were 12.15 mg/L (≈ 24.1 µM) and 32.76 mg/L (≈ 64.9 µM), respectively. The Activity in assay [3] is 82%.

On to `O=c1[nH]c(=S)[nH]c2c1C(c1cccc([N+](=O)[O-])c1)Nc1cc3c(cc1-2)NC(c1cccc([N+](=O)[O-])c1)c1c-3[nH]c(=S)[nH]c1=O` (stereo not drawn), for which the results for the concentration for half-maximal inhibition (IC50) in assay [1] and in assay [2] were 12.68 mg/L (≈ 20.2 µM) and 33.7 mg/L (≈ 53.8 µM), respectively. Besides, the Activity in assay [3] stood at 79.3%.

Take `O=c1[nH]c(=S)[nH]c2c1C(c1ccc(Cl)cc1)Nc1nc3c(cc1-2)-c1[nH]c(=S)[nH]c(=O)c1C(c1ccc(Cl)cc1)N3` (stereo not drawn): the IC50 in assay [1] was found to be 12.36 mg/L (≈ 20.4 µM); in assay [2], 25 mg/L (≈ 41.2 µM). Moreover, the Activity in assay [3] was 80.9%.

In the case of `O=c1[nH]c2c(c(=O)[nH]1)C(c1ccccc1Cl)Nc1cc3c(cc1-2)NC(c1ccccc1Cl)c1c-3[nH]c(=O)[nH]c1=O` (stereo not drawn), the IC50 in assay [1] is 12.05 mg/L (≈ 21 µM); in assay [2], 24.01 mg/L (≈ 41.9 µM). In assay [3], the Activity was 84%.

In the case of `O=c1[nH]c(=S)[nH]c2c1C(c1ccccc1[N+](=O)[O-])Nc1cc3c(cc1-2)NC(c1ccccc1[N+](=O)[O-])c1c-3[nH]c(=S)[nH]c1=O` (stereo not drawn), the IC50 worked out at 12.15 mg/L (≈ 19.4 µM) in assay [1] and 29.5 mg/L (≈ 47.1 µM) in assay [2]. Besides, the Activity in assay [3] amounted to 82%.

As to `O=c1[nH]c2c(c(=O)[nH]1)C(c1ccccc1)c1ccccc1N2` (stereo not drawn), in assay [1], the IC50 stood at 18.91 mg/L (≈ 64.9 µM).

For the compound `O=c1[nH]c(=S)[nH]c2c1C(c1ccc([N+](=O)[O-])cc1)Nc1cc3c(cc1-2)NC(c1ccc([N+](=O)[O-])cc1)c1c-3[nH]c(=S)[nH]c1=O` (stereo not drawn), the IC50 worked out at 12.17 mg/L (≈ 19.4 µM) in assay [1] and 25.21 mg/L (≈ 40.2 µM) in assay [2]. Moreover, in assay [3], the Activity stood at 82.3%.

As to `O=c1[nH]c(=S)[nH]c2c1C(c1cccc([N+](=O)[O-])c1)Nc1nc3c(cc1-2)-c1[nH]c(=S)[nH]c(=O)c1C(c1cccc([N+](=O)[O-])c1)N3` (stereo not drawn), the IC50 was 14.34 mg/L (≈ 22.8 µM) in assay [1] and 34.93 mg/L (≈ 55.7 µM) in assay [2]. The Activity in assay [3] stood at 70.1%.

Regarding `O=c1[nH]c(=S)[nH]c2c1C(c1ccccc1[N+](=O)[O-])Nc1nc3c(cc1-2)-c1[nH]c(=S)[nH]c(=O)c1C(c1ccccc1[N+](=O)[O-])N3` (stereo not drawn), the IC50 is 13.6 mg/L (≈ 21.7 µM) in assay [1] and 30.47 mg/L (≈ 48.5 µM) in assay [2]. Moreover, in assay [3], the Activity came to 73.6%.

In the case of `O=c1[nH]c2c(c(=O)[nH]1)C(c1ccc([N+](=O)[O-])cc1)Nc1nc3c(cc1-2)-c1[nH]c(=O)[nH]c(=O)c1C(c1ccc([N+](=O)[O-])cc1)N3` (stereo not drawn), the IC50 in assay [1] turned out to be 13.48 mg/L (≈ 22.6 µM); in assay [2] it was 26.06 mg/L (≈ 43.8 µM). In assay [3], the Activity came to 74.2%.

With `O=c1[nH]c(=S)[nH]c2c1C(c1ccc(Cl)cc1)Nc1cc3c(cc1-2)NC(c1ccc(Cl)cc1)c1c-3[nH]c(=S)[nH]c1=O` (stereo not drawn), the results for the IC50 in assay [1] and in assay [2] were 11.93 mg/L (≈ 19.7 µM) and 24.11 mg/L (≈ 39.8 µM), respectively. Besides, the Activity in assay [3] came to 84.4%.

Consider `O=c1[nH]c(=S)[nH]c2c1C(c1ccccc1)Nc1nc3c(cc1-2)-c1[nH]c(=S)[nH]c(=O)c1C(c1ccccc1)N3` (stereo not drawn), for which the figures for the IC50 in assay [1] and in assay [2] were 14.25 mg/L (≈ 26.5 µM) and 33.5 mg/L (≈ 62.3 µM), respectively. In addition, the Activity in assay [3] came out at 70.4%.
